The values below come from patent US20120010178A1, “METHODS AND COMPOUNDS FOR TREATMENT OF NEURODEGENERATIVE DISORDERS” (PRESIDENT AND FELLOWS OF HARVARD COLLEGE, priority 2008, published 2012).

“Also recorded” adds a separate entry of the source.

For experiment [1], the system named is SMN1 and SMN2 transcripts. Kind of experiment: qRT-PCR of SMN1 and SMN2 transcripts after PDGF-BB. In kind it is cell-based, human. The settings on record: 50 ng/ml, over three days. As to the method:
Although there is much more known about growth factor specificity and downstream pathways that they activate, whether PDGF effect on SMN was mediated through the binding to the PDGFR was tested next. The SMN-increasing effects of PDGF were blocked by DMPQ and […], two small molecules inhibitors of the PDGF receptor (FIG. 21a). In addition PDGF neutralizing antibody titration were performed in the cells incubated with 20 ng/ml platelet-derived PDGF. Depending on the antibody concentration, gradient of SMN level decrease reaching 40% was observed (FIG. 21b). Moreover, as might be predicted, since there are appreciable levels of PDGF in the media serum in which the fibroblasts are normally maintained, simply adding PDGFR inhibitors DMPQ and AG-1296 to the media decreases the “basal” level of SMN in these cells down to 15-20%, (FIG. 22). […]
[…] was purified using Tri-Reagent (Sigma-Aldrich) protocol and quantified on the Nanodrop (Thermo Fisher Scientific). […] Synthesised cDNA was diluted 5 times and 1 μl of cDNA sample was PCR amplified using RT^2SYBR Green/ROX PCR Master Mix and primer assays for SMN1, SMN2, GAPDH (SABiosciences) genes on 7900HT Fast Real-Time PCR System (ABI). qPCR results were analyzed with RQ Manager Software (ABI) by […] quantification method.
For orientation: In qPCR the cycle at which signal appears reflects the starting amount.

The test system of another experiment is SMN. Kind of experiment: SMN immunofluorescence quantification (cytoplasm, nucleus, GEMs) in fibroblasts from SMA patients. The class given is cell-based, human. The settings on record: SMA patient fibroblasts. The essentials:
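SMN immunostained and imaged by automated confocal microscopy; per-cell cytoplasmic and nuclear SMN intensity and GEM number and intensity quantified. PFA fixation used for screening.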

As for PDGF-BB: human recombinant PDGF-BB, the “level of SMN1 and SMN2 transcripts” value in experiment [1] was “little or no increase in SMN transcripts”. Also, in the experiment on SMN (substance alone), the “levels of cytoplasmic and nuclear SMN (in words)” value is “strongest activator of SMN; also recorded: most potent growth factor that elevated SMN protein levels”. Further, the “Avg. SMN fold increase” value with SMN (human PDGF isoforms) is listed as 2-2.3 fold.
